Data: patent US6706880B2 (Research Triangle Institute, priority 1990, dated 2004)
Where a name gives a salt, the structure may show the parent alone. Read-outs that look alike come from different tables or passages of the source.

Tests used:
serotonin transporter = molecular target: T1, serotonin transporter (Rattus norvegicus, UniProt P31652); test: Inhibition of [3H]paroxetine radioligand binding at the serotonin transporter
T1 construct: from tissue
Source text: (§1) Illustrative in vitro assays for binding are described in Boja et al Ann. NY Acad. Sci. 654:282-291 (1992), which is incorporated herein by reference in its entirety. […] Alternatively, the compounds may be analyzed by their ability to inhibit reuptake of a labelled neurotransmitter in a sample, in particular, in synaptosomes.

[1] = molecular target: norepinephrine transporter (UniProt Q9WTR4); test: Inhibition of [3H]nisoxetine radioligand binding at the norepinephrine transporter
Source text: as §1

dopamine transporter [2] = molecular target: dopamine transporter (UniProt P23977); assay type: binding
Source text: as §1

dopamine transporter [3] = assay type: binding; details: ratio of IC50 values, Table II
Source text: as §1

[4] = 5-HT IC50 for inhibition of radioligand binding, 5-HT=[3H] paroxetine
[5] = IC50 5-HT [3H]-paroxatine, Table II
[6] = read-out: IC50 NE [3H]-nisoxetine, Table II
[7] = read-out: NEN IC50 for inhibition of radioligand binding, NEN=[3H] nisoxetine
[8] = read-out: DA IC50 for inhibition of radioligand binding, DA=[3H]WIN 35,428
[9] = read-out: IC50 DA [3H]-WIN 35,428, Table II
[10] = 5-HT=[3H] paroxetine, read-out: 5-HT IC50 for inhibition of radioligand binding

T1 sequence (P31652 whole entry): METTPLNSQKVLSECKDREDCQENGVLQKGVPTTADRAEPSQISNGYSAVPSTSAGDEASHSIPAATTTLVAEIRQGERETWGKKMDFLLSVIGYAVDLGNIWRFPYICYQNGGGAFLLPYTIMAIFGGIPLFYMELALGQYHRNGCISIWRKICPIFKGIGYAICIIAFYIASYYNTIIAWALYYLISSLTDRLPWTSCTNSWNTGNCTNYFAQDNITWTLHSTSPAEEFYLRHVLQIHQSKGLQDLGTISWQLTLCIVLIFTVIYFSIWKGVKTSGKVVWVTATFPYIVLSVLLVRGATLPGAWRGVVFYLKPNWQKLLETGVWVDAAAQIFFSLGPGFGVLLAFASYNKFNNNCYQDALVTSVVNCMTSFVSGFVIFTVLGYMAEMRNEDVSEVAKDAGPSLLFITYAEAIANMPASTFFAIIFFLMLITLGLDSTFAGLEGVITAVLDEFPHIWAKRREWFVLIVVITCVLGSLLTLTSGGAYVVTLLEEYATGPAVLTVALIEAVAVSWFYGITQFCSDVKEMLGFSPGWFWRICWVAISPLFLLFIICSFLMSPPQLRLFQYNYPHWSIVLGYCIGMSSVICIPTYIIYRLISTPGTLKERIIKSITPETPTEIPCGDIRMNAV

Compound	melting point	IC50 (serotonin transporter; IC50 5-HT [3H]-paroxetine, Table IV) [nM]	IC50 ([1]; read-out: IC50 NE [3H]-nisoxetine, Table IV) [nM]	IC50 (dopamine transporter [2]; read-out: IC50 DA [3H]-WIN 35,428, Table IV) [nM]	IC50 (serotonin transporter; [4]) [nM]	IC50 (serotonin transporter; [5]) [nM]	IC50 [1, 6] [nM]	IC50 [1, 7] [nM]	5-HT/DA Ratio (dopamine transporter [3])	NE/DA Ratio (dopamine transporter [3])	IC50 (dopamine transporter [2]; [8]) [nM]	IC50 (dopamine transporter [2]; [9]) [nM]	IC50 (serotonin transporter; [10]) [nM]	IC50 (serotonin transporter; Table II, read-out: IC50 5-HT [3H]-paroxatine (converted)) [nM]
Cc1ccc([C@H]2C[C@@H]3CC[C@H]([C@H]2c2nn[nH]n2)N3C)cc1 (as salt: hydrochloride) [RTI-157, 3β-(4-Methylphenyl)-tropane-2β-tetrazole Hydrochloride]	< 212 °C (dec.)													
Cc1cc([C@H]2[C@@H](c3ccc(Cl)cc3)C[C@@H]3CC[C@H]2N3C)on1 (as salt: hydrochloride) [RTI-165, 3β-(4-Chlorophenyl)-2β-(3-methylisoxazol-5-yl)tropane Hydrochloride]	235 °C (dec.)													
CN1[C@H]2CC[C@@H]1[C@@H](c1cc(-c3ccccc3)no1)[C@@H](c1ccc(Cl)cc1)C2 (as salt: hydrochloride) [RTI-4229-177, 3β-(4-Chlorophenyl)-2β-(3-phenylisoxazol-5-yl)tropane Hydrochloride]	287 °C													
CN1C2CCC1C(c1nnc(-c3ccccc3)s1)C(c1ccc(Cl)cc1)C2 (stereo not drawn) (as salt: hydrochloride) [RTI-4229-200, 3β-(4-Chlorophenyl)-2β-(S-phenyl-1,3,4-thiadiazol-2-yl)-tropane Hydrochloride]	165 to 170 °C													
CN1[C@H]2CC[C@@H]1[C@@H](C#N)[C@@H](c1ccc(Cl)cc1)C2 [RTI-161, 3β-(4-Chlorophenyl)-tropane-2β-nitrile]	> 220 °C (dec.)	1890 ± 134	2520 ± 253	13.1 ± 0.78										
CN1[C@H]2CC[C@@H]1[C@@H](c1cc(-c3ccccc3)no1)[C@@H](c1ccc(Cl)cc1)C2 [RTI-4229-177, 3β-(4-Chlorophenyl)-2β-(3-phenylisoxazol-5-yl)tropane Hydrochloride]					2420	2420 ± 136	504 ± 29	504	1889	393	1.28	1.28 ± 0.18		
Cc1ccc([C@H]2C[C@@H]3CC[C@H]([C@H]2c2ncc(-c4ccccc4)o2)N3C)cc1 [RTI-4229-178, 3β-(4-Methylphenyl)-2β-(5-phenyl-oxazol-2-yl)-tropane Tartrate]					1700	1700	677	677	48	19	35.4	35.4		
Cc1cc([C@H]2[C@@H](c3ccc(I)cc3)C[C@@H]3CC[C@H]2N3C)on1 [RTI-4229-180, 3β-(4-Iodophenyl)-2β-(3-methylisoxazol-5-yl)tropane Hydrochloride]						36.4	67.9	67.9		93		0.73		
CN1[C@H]2CC[C@@H]1[C@@H](c1cc(-c3ccccc3)no1)[C@@H](c1ccc(I)cc1)C2 [RTI-4229-181, 3β-(4-Iodophenyl)-2β-(3-phenylisoxazol-5-yl)tropane Hydrochloride]					100	100	868	868	39	337	2.57	2.57		
CN1[C@H]2CC[C@@H]1[C@@H](c1nnc(-c3ccccc3)o1)[C@@H](c1ccc(Cl)cc1)C2 [RTI-4229-188, 3β-(4-Chlorophenyl)-2β-(5-phenyl-1,3,4-oxadiazol-2-yl)-tropane Hydrochloride]						3300 ± 196	929 ± 88	929	262	73	12.6	12.6 ± 1.03	3300	
CN1[C@H]2CC[C@@H]1[C@@H](c1ncc(-c3ccccc3)o1)[C@@H](c1ccc(Cl)cc1)C2 [RTI-4229-189, 3β-(4-Chlorophenyl)-2β-(5-phenyl-oxazol-2-yl)-tropane Tartrate]							496 ± 42	496	57	25	19.7	19.7 ± 1.98	1120	1120 ± 107
Cc1ccc([C@H]2C[C@@H]3CC[C@H]([C@H]2c2nnc(C)o2)N3C)cc1 [RTI-4229-194, 3β-(4-Methylphenyl)-2β-(5-methyl-1,3,4-oxadiazol-2-yl)-tropane Hydrochloride]					4880	4880 ± 155	253 ± 19	253	1098	57	4.45	4.45 ± 0.12		
Cc1ccc([C@H]2C[C@@H]3CC[C@H]([C@H]2c2nnc(-c4ccccc4)o2)N3C)cc1 [RTI-4229-195, 3β-(4-Methylphenyl)-2β-(5-phenyl-1,3,4-oxadiazol-2-yl)-tropane Hydrochloride]					22300	23300	1310	1310	491	28	47.5	47.5		
Cc1ccc([C@H]2C[C@@H]3CC[C@H]([C@H]2c2nnc(-c4ccccc4)s2)N3C)cc1 [RTI-4229-199, 3β-(4-Methylphenyl)-2β-(5-phenyl-1,3,4-thiadiazol-2-yl)-tropane Hydrochloride]					51500	51500	24300		1434	677	35.9	35.9		
CN1C2CCC1C(c1nnc(-c3ccccc3)s1)C(c1ccc(Cl)cc1)C2 (stereo not drawn) [RTI-4229-200, 3β-(4-Chlorophenyl)-2β-(S-phenyl-1,3,4-thiadiazol-2-yl)-tropane Hydrochloride]					18400	18400	4140 ± 466	4140	1203	271	15.3	15.3 ± 2.43		
CN1[C@H]2CC[C@@H]1[C@@H](c1nc3ccccc3s1)[C@@H](c1ccc(Cl)cc1)C2 [RTI-4229-202, 3β-(4-Chlorophenyl)-2β-(benzothiazol-2-yl)-tropane Hydrochloride]					1120	1120 ± 120	403 ± 30	403	817	294	1.37	1.37 ± 0.14		
CN1[C@H]2CC[C@@H]1[C@@H](c1ncc(-c3ccccc3)s1)[C@@H](c1ccc(Cl)cc1)C2 [RTI-4229-219, 3β-(4-Chlorophenyl)-2β-(5-phenylthiazol-2-yl)-tropane Hydrochloride]					10300	10300		8560	1811		5.71			
